These results are taken from patent US20080249174A1, “Animal Model for Studying Atherosclerotic Lesions” (THE RESEARCH FOUNDATION OF STATE UNIVERSITY OF NEW YORK, priority 2005, published 2008).

Data set [1] relates to apoE KO mice. Nature of the data set: Apolipoprotein analysis using SDS-PAGE. It is filed as in vivo, mouse. As to the method:
Fasting plasma was collected for fast protein liquid chromatography (FPLC) separation and lipid measurement. Total cholesterol, phospholipids and triglyceride inplasma, and lipoproteins were assayed by enzymatic methods (WakoPure Chemical Industries Ltd., Osaka, Japan). Plasma sphingomyelin was measured as described previously (JBC13). PC concentration was obtained by subtracting SM from total phospholipid concentration. Apolipoprotein analysis using SDS-PAGE was also done as describedpreviously (JBC 14).

The subject of data set [2] is T-lymphocyte populations. The note with it: myriocin 1 mg/kg (but not 0.3 mg/kg); cited from earlier work.
For data set [3], the system named is apoE KO mice. Nature of the data set: Atherosclerotic lesions: aorta root assay and en face assay. The class given is in vivo, mouse. The conditions noted are these: 2 months of myriocin administration, p<0.01; for reduction in mean whole aortic lesion areas compared with controls: en face; for reduction in mean proximal aortic lesion areas compared with controls: root assay. An excerpt: This set of pictures is representative of seven sets. FIGS. 8B and 8C depict quantification of atherosclerotic lesions in the proximal aorta by root assay in mice fed a chow diet (FIG. 8B) or a high fat, high cholesterol diet (FIG. 8C). The procedure for root assay was described previously (JBC 15). FIGS. 8D and 8E depict quantification of atherosclerotic lesions in whole aorta by en face analysis in mice fed a chow diet (FIG. 8D) or a high fat, high cholesterol diet (FIG. 8E). The procedure for en face analysis was described previously (JBC 16). Values are mean ±S.D. *, p<0.001; n=7.
At the end of the myriocin treatment period, the mice were sacrificed, and the hearts and proximal aortas as well as the whole aortas were removed, dissected, and photographed. An aorta root assay and an en face assay were performed as described previously (JBC 15, 16).

In data set [4] the target is T1, SPT (Mus musculus, UniProt O35704+P97363).
T1 construct: myriocin treated mice had 50% less SPT activity in the liver than the controls; from tissue; host or cells: liver of apoE KO mice (The Jackson Laboratory) treated in vivo with myriocin
T1 sequence (O35704 1-473): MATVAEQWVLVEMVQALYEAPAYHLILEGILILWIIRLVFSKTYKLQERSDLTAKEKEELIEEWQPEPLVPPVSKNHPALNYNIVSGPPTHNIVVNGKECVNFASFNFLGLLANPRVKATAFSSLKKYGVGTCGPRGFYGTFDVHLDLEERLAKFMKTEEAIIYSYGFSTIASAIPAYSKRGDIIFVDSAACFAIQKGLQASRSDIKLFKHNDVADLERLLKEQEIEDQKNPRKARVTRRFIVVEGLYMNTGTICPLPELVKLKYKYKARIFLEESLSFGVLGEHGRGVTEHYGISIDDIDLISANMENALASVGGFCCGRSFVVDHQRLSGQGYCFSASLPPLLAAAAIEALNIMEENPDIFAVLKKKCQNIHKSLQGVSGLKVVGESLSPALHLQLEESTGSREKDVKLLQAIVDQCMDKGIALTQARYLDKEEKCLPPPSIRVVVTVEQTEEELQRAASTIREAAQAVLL
T1 sequence (P97363 1-560): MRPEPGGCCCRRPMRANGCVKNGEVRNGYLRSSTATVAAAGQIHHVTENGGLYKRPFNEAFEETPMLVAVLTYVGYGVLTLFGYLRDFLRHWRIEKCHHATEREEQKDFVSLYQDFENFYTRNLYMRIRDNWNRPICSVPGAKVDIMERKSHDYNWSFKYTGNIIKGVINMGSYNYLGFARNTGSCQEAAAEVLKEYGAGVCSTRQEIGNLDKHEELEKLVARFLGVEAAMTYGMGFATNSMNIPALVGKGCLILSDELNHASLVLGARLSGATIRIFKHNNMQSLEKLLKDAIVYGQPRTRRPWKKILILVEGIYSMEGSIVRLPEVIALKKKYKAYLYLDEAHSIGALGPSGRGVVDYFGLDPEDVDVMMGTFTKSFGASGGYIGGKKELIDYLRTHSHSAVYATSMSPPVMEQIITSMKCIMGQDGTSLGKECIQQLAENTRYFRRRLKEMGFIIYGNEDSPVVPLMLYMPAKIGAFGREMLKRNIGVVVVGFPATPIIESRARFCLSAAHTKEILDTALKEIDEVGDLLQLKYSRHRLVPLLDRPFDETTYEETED
T1 sequence (Q8R207 1-71 partner): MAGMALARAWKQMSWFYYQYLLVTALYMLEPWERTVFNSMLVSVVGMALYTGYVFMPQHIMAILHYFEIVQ
The data set can be described thus: SPT activity in liver of myriocin-treated apoE KO mice. The note with it: myriocin 0.3 mg/kg intraperitoneally every other day for 8 weeks. It is filed as in vivo. As for the experimental part: Each mRNA level was expressed as a ratio to β-Actin mRNA. Liver tissues from Sptlc1 and Sptlc2-deficient, as well as wild type, mice were homogenized, and SPT activity was measured with ^3H-serine and palmitoyl-coenzyme A for substrates, as previously described (15).
Eight-week-old apoE KO micewere purchased from The Jackson Laboratory (Bar Harbor, Me.). Myriocin (0.3 mg/kg) (Biomol Research Laboratories Inc.) or phosphate buffered saline was injected intraperitoneally every other day for 8 weeks. The animals were on Purina Rodent Chow (catalog number 5001) or a high fat, high cholesterol diet (20% milk fat and 0.15% cholesterol; Harlan Teklad, Madison, Wis.).
In the present invention, two groups of 8-week-old apoE KO mice were utilized. Group 1 (n=7) and group 2 (n=7) animals were injected with 100 μl of myriocin (0.3 mg/kg) or phosphate-buffered saline, respectively, every other day for 8 weeks. As expected, myriocin treated mice had 50% less SPT activity in the liver than the controls.

The structures appear in SMILES notation.

Take `CCCCCCC(=O)CCCCCC/C=C/C[C@@H](O)[C@H](O)[C@@](N)(CO)C(=O)O` [Myriocin, myriocin]: the “levels of apolipoproteins, including apoB100, apoB48, and apoA-I” value in data set [1] (chow diet) is reported as “no significant changes”. Also, the “levels of apolipoproteins, including, apoB48, and apoA-I” value in data set [1] (high fat, high cholesterol diet) was “no significant changes”. Besides, the “effect on T-lymphocyte populations in mice” value in data set [2] is “reduces T-lymphocyte populations”. Moreover, the “reduction in mean whole aortic lesion areas compared with controls” value in data set [3] (Western type diet) amounted to 37%; in data set [3] (chow diet), 36%. Moreover, the “reduction in mean proximal aortic lesion areas compared with controls” value worked out at 39% in data set [3] (Western type diet) and 42% in data set [3] (chow diet). Further, the “less SPT activity in the liver than the controls” value in data set [4] was 50%.
